Data taken from patent US10494363B2, “Non-steroidal glucocorticoid receptor modulators for local drug delivery” (LEO PHARMA A/S, priority 2015, dated 2019).

Key:
[1] = tested on: TNF alpha release from human PBMCs; assay: Inhibition of TNF alpha release from human PBMCs; assay type: cell-based; settings: PBMC, LPS 1 μg/ml, 18 hours, AlphaLISA
Protocol: PBMC were isolated from fresh buffy coats by density centrifugation using lymphoprep (Medinor AB, cat no 1019818) tubes. Isolated PBMCs were washed in assay medium (RPMI1640 with 25 mM HEPES, 1% pen/strep, 200 mM L glutamine and 10% Foetal calf serum). Surplus PBMCs were frozen in medium containing extra 10% foetal calf serum and 5% DMSO. On the assay day, fresh cells or cryopreserved cells after thawing were washed in serum free medium (RPMI1640 with 25 mM HEPES, 1% pen/strep, 200 mM L glutamine and 0.5% human serum albumin) and counted, in order to determine the fraction of living cells (generally >95%).
Test compounds were diluted in DMSO over seven orders of magnitude, further diluted in serum-free medium and distributed into wells of 384 well tissue culture plates. LPS was added to a final concentration of 1 μg/ml to the cells. Immediately thereafter titrated test compounds were added and incubated for 18 hours at 37° C.
The level of TNF-a in the culture supernatant was quantitated by AlphaLISA (Perkin Elmer). 2-(3,5-dichloro-4-pyridinyl)-1-(7-methoxyspiro[1,3-benzodioxole-2,1′-cyclopentan]-4-yl)-ethanone (CAS 185406-34-2) at 100×IC50 was used to define the assay window.
Data were processed by sigmoidal curve fitting. EC50 and Emax were determined from the curve fits.

[2] = Human liver microsomes (HLM) assay; assay type: in vitro ADME; settings: hepatic extraction ratio; 0.5 μM compound, 0.5 mg/mL microsomes, NADPH, 37° C.
Protocol: Incubations of test compounds in DMSO, diluted with phosphate buffer, pH 7.4, at 0.5 μM were carried out with human liver microsomes (0.5 mg/mL). The percentage of organic solvent in the incubations was 1%. The human liver microsomal suspension in phosphate buffer was mixed with NADPH (1 mM) and preheated to 37° C. before test compound was added. Aliquots were taken at 0, 5, 10, 20 and 30 minutes, and reactions were terminated by addition of methanol containing analytical internal standard (IS).
The results were expressed as apparent clearance (Clapp) (mL/min/kg) and hepatic extraction ratio (Eh) (%) calculated from the rate constant (k) (min^−1) of test compound depletion.

[3] = biological target: T1, glucocorticoid receptor (GR), recombinant full-length receptor protein (Homo sapiens, UniProt P04150); assay: Glucocorticoid receptor binding assay (fluorescence polarization kit); settings: 4 nM receptor, 2.5 nM Fluormone GS1 tracer, 2h room temperature, read-out: GR binding ABS IC50
T1 construct: 4 nM recombinant, full-length receptor protein was incubated with increasing concentrations of GR ligand; purchased Life Technologies A-15897
T1 sequence (P04150 1-777): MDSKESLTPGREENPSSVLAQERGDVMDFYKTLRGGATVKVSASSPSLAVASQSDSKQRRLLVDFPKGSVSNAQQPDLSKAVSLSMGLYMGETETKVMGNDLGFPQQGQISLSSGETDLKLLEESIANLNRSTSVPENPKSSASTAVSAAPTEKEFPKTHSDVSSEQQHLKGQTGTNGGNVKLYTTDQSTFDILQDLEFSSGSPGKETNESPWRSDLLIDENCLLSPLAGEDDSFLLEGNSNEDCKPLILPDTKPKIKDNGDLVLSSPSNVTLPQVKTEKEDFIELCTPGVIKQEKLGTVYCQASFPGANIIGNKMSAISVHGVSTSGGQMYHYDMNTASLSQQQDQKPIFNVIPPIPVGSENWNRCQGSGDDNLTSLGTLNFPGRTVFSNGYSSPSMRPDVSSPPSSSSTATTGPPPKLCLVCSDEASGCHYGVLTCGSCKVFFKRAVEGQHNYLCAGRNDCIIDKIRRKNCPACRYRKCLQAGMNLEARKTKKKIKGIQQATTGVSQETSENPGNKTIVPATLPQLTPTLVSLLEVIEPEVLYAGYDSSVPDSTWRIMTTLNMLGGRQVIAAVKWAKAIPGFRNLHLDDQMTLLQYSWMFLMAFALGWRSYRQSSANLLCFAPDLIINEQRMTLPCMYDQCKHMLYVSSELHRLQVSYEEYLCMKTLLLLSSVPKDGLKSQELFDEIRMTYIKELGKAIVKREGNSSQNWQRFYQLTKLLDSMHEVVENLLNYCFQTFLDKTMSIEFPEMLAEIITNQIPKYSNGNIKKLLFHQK
Protocol: Test compounds were diluted in DMSO over seven orders of magnitude, further diluted in assay buffer and distributed into 384-well plates. The sensitivity limit of this assay was 2-4 nM.
Data were processed by sigmoidal curve fitting.
Absolute (Abs) IC50 and Emax were determined from the curve fits.

SMILES | EC50 [1] | HLM assay Eh (%) [2] | IC50 [3]
Cc1ccc([C@@H](Oc2ccc(C(=O)N[C@H]3CCCN(C(=O)[C@H]4COC(=O)C4)C3)nc2)[C@H](C)NC(=O)C(F)(F)F)cc1 [Compound 1, N-[(3S)-1-[(3R)-5-oxotetrahydrofuran-3-carbonyl]-3-piperidyl]-5-[(1R,2S)-1-(p-tolyl)-2-[(2,2,2-trifluoroacetyl)amino]propoxy]pyridine-2-carboxamide] | < 100 nM | * (extraction ratio (Eh)>90%) | 
C[C@H](NC(=O)C(F)(F)F)[C@H](Oc1ccc(C(=O)N[C@H]2CCCN(C(=O)[C@H]3COC(=O)C3)C2)nc1)c1ccc(C2CC2)cc1 [Compound 2, 5-[(1R,2S)-1-(4-cyclopropylphenyl)-2-[(2,2,2-trifluoroacetyl)amino]propoxy]-N-[(3S)-1-[(3R)-5-oxotetrahydrofuran-3-carbonyl]-3-piperidyl]pyridine-2-carboxamide] | < 100 nM | * (extraction ratio (Eh)>90%) | < 100 nM
C[C@H](NC(=O)C(C)(F)F)[C@H](Oc1ccc(C(=O)N[C@H]2CCCN(C(=O)[C@H]3COC(=O)C3)C2)nc1)c1ccc(C2CC2)cc1 [Compound 3, 5-[(1R,2S)-1-(4-cyclopropylphenyl)-2-(2,2-difluoropropanoylamino)propoxy]-N-[(3S)-1-[(3R)-5-oxotetrahydrofuran-3-carbonyl]-3-piperidyl]pyridine-2-carboxamide] | < 100 nM | * (extraction ratio (Eh)>90%) | < 100 nM
C[C@H](NC(=O)c1ccsn1)[C@H](Oc1ccc(C(=O)N[C@H]2CCCN(C(=O)[C@H]3COC(=O)C3)C2)nc1)c1ccc(C2CC2)cc1 [Compound 4, N-[(1S,2R)-2-(4-cyclopropylphenyl)-1-methyl-2-[[6-[[(3S)-1-[(3R)-5-oxotetrahydrofuran-3-carbonyl]-3-piperidyl]carbamoyl]-3-pyridyl]oxy]ethyl]isothiazole-3-carboxamide] | < 100 nM | * (extraction ratio (Eh)>90%) | < 100 nM
C[C@H](NC(=O)c1ccns1)[C@H](Oc1ccc(C(=O)N[C@H]2CCCN(C(=O)[C@H]3COC(=O)C3)C2)nc1)c1ccc(C2CC2)cc1 [Compound 5, N-[(1S,2R)-2-(4-cyclopropylphenyl)-1-methyl-2-[[6-[[(3S)-1-[(3R)-5-oxotetrahydrofuran-3-carbonyl]-3-piperidyl]carbamoyl]-3-pyridyl]oxy]ethyl]isothiazole-5-carboxamide] | < 100 nM | * (extraction ratio (Eh)>90%) | < 100 nM
C[C@H](NC(=O)c1ncco1)[C@H](Oc1ccc(C(=O)N[C@H]2CCCN(C(=O)[C@H]3COC(=O)C3)C2)nc1)c1ccc(C2CC2)cc1 [Compound 6, N-[(1S,2R)-2-(4-cyclopropylphenyl)-1-methyl-2-[[6-[[(3S)-1-[(3R)-5-oxotetrahydrofuran-3-carbonyl]-3-piperidyl]carbamoyl]-3-pyridyl]oxy]ethyl]oxazole-2-carboxamide] | < 100 nM | * (extraction ratio (Eh)>90%) | < 100 nM
C[C@H](NC(=O)c1cscn1)[C@H](Oc1ccc(C(=O)N[C@H]2CCCN(C(=O)[C@H]3COC(=O)C3)C2)nc1)c1ccc(C2CC2)cc1 [Compound 7, N-[(1S,2R)-2-(4-cyclopropylphenyl)-1-methyl-2-[[6-[[(3S)-1-[(3R)-5-oxotetrahydrofuran-3-carbonyl]-3-piperidyl]carbamoyl]-3-pyridyl]oxy]ethyl]thiazole-4-carboxamide] | < 100 nM | * (extraction ratio (Eh)>90%) | < 100 nM
Cc1cc(C(=O)N[C@@H](C)[C@H](Oc2ccc(C(=O)N[C@H]3CCCN(C(=O)[C@H]4COC(=O)C4)C3)nc2)c2ccc(C3CC3)cc2)on1 [Compound 8, N-[(1S,2R)-2-(4-cyclopropylphenyl)-1-methyl-2-[[6-[[(3S)-1-[(3R)-5-oxotetrahydrofuran-3-carbonyl]-3-piperidyl]carbamoyl]-3-pyridyl]oxy]ethyl]-3-methylisoxazole-5-carboxamide] | < 100 nM | * (extraction ratio (Eh)>90%) | < 100 nM
Cc1ccc([C@@H](Oc2ccc(C(=O)N[C@@H]3CCCN(C(=O)[C@H]4COC(=O)C4)C3)nc2)[C@H](C)NC(=O)C(F)(F)F)cc1 [Compound 59, N-[(3R)-1-[(3R)-5-oxotetrahydrofuran-3-carbonyl]-3-piperidyl]-5-[(1R,2S)-1-(p-tolyl)-2-[(2,2,2-trifluoroacetyl)amino]propoxy]pyridine-2-carboxamide] | < 100 nM | ** (50%<extraction ratio (Eh)<90%) | 
Cc1ccc([C@@H](Oc2ccc(C(=O)N[C@H]3CCCN(C(=O)N[C@H]4COC(=O)C4)C3)nc2)[C@H](C)NC(=O)C(F)(F)F)cc1 [Compound 72, N-[(3S)-1-[[(3R)-5-oxotetrahydrofuran-3-yl]carbamoyl]-3-piperidyl]-5-[(1R,2S)-1-(p-tolyl)-2-[(2,2,2-trifluoroacetyl)amino]propoxy]pyridine-2-carboxamide] | 100 to 300 nM |  | < 100 nM
Cc1ccc([C@@H](Oc2ccc(C(=O)N[C@H]3CCCN(C(=O)O[C@@H]4CCOC4=O)C3)nc2)[C@H](C)NC(=O)C(F)(F)F)cc1 [Compound 74, [(3R)-2-oxotetrahydrofuran-3-yl] (3S)-3-[[5-[(1R,2S)-1-(p-tolyl)-2-[(2,2,2-trifluoroacetyl)amino]propoxy]pyridine-2-carbonyl]amino]piperidine-1-carboxylate] | < 100 nM |  | < 100 nM
Cc1ccc([C@@H](Oc2ccc(C(=O)N[C@H]3CCCN(C(=O)O[C@@H]4COC(=O)C4)C3)nc2)[C@H](C)NC(=O)C(F)(F)F)cc1 [Compound 75, [(3S)-5-oxotetrahydrofuran-3-yl] (3S)-3-[[5-[(1R,2S)-1-(p-tolyl)-2-[(2,2,2-trifluoroacetyl)amino]propoxy]pyridine-2-carbonyl]amino]piperidine-1-carboxylate] | 100 to 300 nM |  | < 100 nM
Cc1ccc([C@@H](Oc2ccc(C(=O)N[C@H]3CCCN(C(=O)O[C@H]4COC(=O)C4)C3)nc2)[C@H](C)NC(=O)C(F)(F)F)cc1 [Compound 76, [(34)-5-oxotetrahydrofuran-3-yl] (3S)-3-[[5-[(1R,2S)-1-(p-tolyl)-2-[(2,2,2-trifluoroacetyl)amino]propoxy]pyridine-2-carbonyl]amino]piperidine-1-carboxylate] | 100 to 300 nM |  | < 100 nM
C[C@H](NC(=O)[C@H]1CCCO1)[C@H](Oc1ccc(C(=O)O[C@H]2CCCN(C(=O)[C@@H]3COC(=O)C3)C2)cc1)c1ccc(C2CC2)cc1 [Compound 77, [(3S)-1-[(3S)-5-oxotetrahydrofuran-3-carbonyl]-3-piperidyl] 4-[(1R,2S)-1-(4-cyclopropylphenyl)-2-[[(2R)-tetrahydrofuran-2-carbonyl]amino]propoxy]benzoate] | < 100 nM |  | < 100 nM
C[C@H](NC(=O)[C@@H]1CCCO1)[C@H](Oc1ccc(C(=O)O[C@H]2CCCN(C(=O)[C@H]3COC(=O)C3)C2)cc1)c1ccc(C2CC2)cc1 [Compound 78, [(3S)-1-[(3R)-5-oxotetrahydrofuran-3-carbonyl]-3-piperidyl] 4-[(1R,2S)-1-(4-cyclopropylphenyl)-2-[[(2S)-tetra hydrofuran-2-carbonyl]amino]propoxy]benzoate] | < 100 nM |  | < 100 nM
